Measurements taken from patent publication US20240360148A1 (SUVALENT THERAPEUTICS, INC., priority 2021, published 2024).

How the values were obtained:
[1] = molecular target: SAE1 (Homo sapiens (Human), UniProt Q9UBE0+Q9UBT2); experiment: SAE High Throughput Biochemical Assay (HTRF), 15 min preincubation; settings: read-out: 15 min preincubation HTRF IC50 (μM) Ave, SAE1 12.5 nM, ATP 100 μM
Summary of the method: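 SAE1 (12.5 nM) was preincubated with compound for 15 min at RT in HEPES pH 7.5, 0.1% BSA, 10 mM MgCl2. The reaction was then started with SUMO-GST and UBC9-His (40 nM each) plus 100 μM ATP for 45 min. After KF stop, HTRF (anti-GST-XL665/anti-His-EuK) was read at 2 h and overnight; some compounds were tested singly at 25 micromolar as percent of control.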

[2] = test system: sumoylation levels (SUMO 2/3 conjugates) in HCT-116 cells; experiment: HCT-116 4 Hour Cell Assay (Western, SUMO 2/3 conjugates); type: cell-based; settings: Homo sapiens, HCT-116, 4 h, 4 h treatment, Anti-Sumo 2-3 immunoblot, read-out: HCT-116 Western 4 h IC50 (μM) Ave
Procedure: This protocol describes the procedures used to assess the effects of compounds of interest on sumoylation levels. Immunoblot of SUMO 2/3 conjugates are performed and IC50 curves are generated upon quantification of sumoylations bands. HCT-116 cells are seeded in a 12 well plate (500,000 cells/well). The following day the cells are treated with compounds of interest (resuspended in DMSO) for 4 hours (11 concentrations with a three-fold dilution; starting concentration 25 μM) Following 4 hours of incubation the cells are washed with ice cold PBS 1×and protein extraction is performed with RIPA buffer supplemented with phosphatases and proteases inhibitors, 25 mM of NEM and 50 units/mL of Benzonase. Samples undergo centrifugation at 13,000 RPM, 4° C., for 10 minutes and the supernatant is collected. Protein quantification is performed using BCA. Non-Reducing Laemmli Buffer is added to the samples. Samples are heated at 75° C. for 10 minutes, and are centrifuged for 3 minutes at 9000 RPM Nupage 4-12% Bis Tris gels and 1× MOPS buffer (Fisher Scientific)+1× NuPAGE Antioxidant (Invitrogen) are used to perform the SDS-PAGE gel electrophoresis (20 to 40 μg of proteins are loaded in the gels). Proteins are then transferred to PVDF membranes and the level of total proteins are measured by staining with Revert Total Protein Stain and the fluorescent bands are acquired using the LI-COR FC (700 nm for 1 min) Membranes are blocked for 5 minutes with Bio-Rad Blocking Buffer and are subsequently incubated over night at 4° C. with Anti-Sumo 2-3 mAb (M BL #M114-3, 1:1000 in Bio-Rad Blocking Buffer, 0.2% Tween 20) Membranes are washed with 1×TBS-T (3 times for 5 minutes) and sumoylation is detected using Li-cor IRDye 800CW Goat anti-Mouse IgG secondary antibody (1:10,000 dilution) upon 1 hour of incubation in blocking buffer with 0.2% Tween 20 and 0.01% SDS. After the incubation, the membranes are washed with 1×TBS-T (3 times for 5 minutes). To visualize the fluorescent bands the membranes are scanned with LI-COR FC (700 nm for 1 min and […] for 2 mins). Sumoylation levels are quantified upon normalization with total protein levels, using the LI-COR Image Studio Lite 5.2 Software.

Chain of SAE1 (Q9UBE0 whole entry): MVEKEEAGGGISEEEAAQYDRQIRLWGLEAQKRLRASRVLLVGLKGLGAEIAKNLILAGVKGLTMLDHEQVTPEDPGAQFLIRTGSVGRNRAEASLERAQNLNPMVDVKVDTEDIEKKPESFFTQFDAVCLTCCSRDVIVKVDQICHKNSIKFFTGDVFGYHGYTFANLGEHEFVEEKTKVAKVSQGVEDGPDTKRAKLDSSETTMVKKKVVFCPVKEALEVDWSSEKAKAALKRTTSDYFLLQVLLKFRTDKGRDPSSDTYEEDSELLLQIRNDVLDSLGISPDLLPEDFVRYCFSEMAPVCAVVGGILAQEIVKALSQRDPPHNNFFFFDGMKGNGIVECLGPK
Chain of SAE1 (Q9UBT2 whole entry): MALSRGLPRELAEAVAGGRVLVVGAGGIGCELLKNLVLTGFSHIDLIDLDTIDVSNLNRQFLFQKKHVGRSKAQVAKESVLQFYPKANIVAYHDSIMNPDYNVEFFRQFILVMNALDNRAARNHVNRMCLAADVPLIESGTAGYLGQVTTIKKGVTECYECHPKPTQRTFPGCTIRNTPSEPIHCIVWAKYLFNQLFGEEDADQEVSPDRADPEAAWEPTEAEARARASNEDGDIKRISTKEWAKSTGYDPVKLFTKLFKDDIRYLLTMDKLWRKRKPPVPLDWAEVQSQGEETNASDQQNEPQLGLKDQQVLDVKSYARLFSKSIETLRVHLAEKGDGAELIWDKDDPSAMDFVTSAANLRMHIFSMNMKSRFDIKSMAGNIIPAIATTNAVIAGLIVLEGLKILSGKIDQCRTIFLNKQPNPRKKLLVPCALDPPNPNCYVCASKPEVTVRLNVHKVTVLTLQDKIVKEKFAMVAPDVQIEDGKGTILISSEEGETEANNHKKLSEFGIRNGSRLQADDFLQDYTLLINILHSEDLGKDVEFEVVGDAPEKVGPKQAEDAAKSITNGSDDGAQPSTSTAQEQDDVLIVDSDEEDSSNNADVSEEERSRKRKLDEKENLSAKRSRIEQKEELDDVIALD

Structure (SMILES)	IC50 [2]	IC50 [1]
CCn1cc(-c2ccccc2[C@@H]2CN(C(=O)/C=C/[C@H]3C[C@@H](C)CN3)Cc3sc(C#N)cc32)c(C(F)(F)F)n1 [Example 81, (S)-4-(2-(1-Ethyl-3-(trifluoromethyl)-1 H-pyrazol-4-yl)phenyl)-6-((E)-3-((2R, 4R)-4-methylpyrrolidin-2-yl)acryloyl)-4,5,6,7-tetrahydrothieno[2,3-c]pyridine-2-carbonitrile]	0.35 µM	2.69 µM
CCn1cc(-c2ccccc2[C@@H]2CN(C(=O)/C=C/CNC3(C)CCOCC3)Cc3sc(C#N)cc32)c(C(F)(F)F)n1 [Example 96, (S,E)-4-(2-(1-Ethyl-3-(trifluoromethyl)-1H-pyrazol-4-yl)phenyl)-6-(4-((4-methyltetrahydro-2H pyran-4-yl)amino)but-2-enoyl)-4,5,6,7-tetrahydrothieno[2,3-c]pyridine-2-carbonitrile]	2.79 µM	2.92 µM
C=CC(=O)N1Cc2sc(C#N)c(C)c2C(c2ccccc2-c2cn(CC)nc2C(F)(F)F)C1 (centres unmarked) [Compound 231]	1 µM	0.16 µM
CCn1cc(-c2ccccc2[C@@H]2CN(C(=O)/C=C/CN(C)C)Cc3sc(C#N)c(C)c32)c(C(F)(F)F)n1 [Compound 239]	0.187 µM	1.12 µM
Cc1c(C#N)sc2c1[C@H](c1cccc(F)c1-c1cn(C)nc1C(F)(F)F)CN(C(=O)/C=C/CN(C)C)C2 [Compound 220]	0.0573 µM	0.067 µM
CCn1cc(-c2ccccc2[C@@H]2CN(C(=O)/C=C/[C@@H](N)CO)Cc3sc(C#N)cc32)c(C(F)(F)F)n1 [Example 74, (S)-6-((R, E)-4-Amino-5-hydroxypent-2-enoyl)-4-(2-(1-ethyl-3-(trifluoromethyl)-1 H-pyrazol-4-yl)phenyl)-4,5,6,7-tetrahydrothieno[2,3-c]pyridine-2-carbonitrile]	2.24 µM	2.84 µM
CCN(CC)C/C=C/C(=O)N1Cc2sc(C#N)cc2[C@H](c2ccccc2-c2cn(CC)nc2C(F)(F)F)C1 [Example 28, (S, E)-6-(4-(Diethylamino)but-2-enoyl)-4-(2-(1-ethyl-3-(trifluoromethyl)-1 H-pyrazol-4-yl)phenyl)-4,5,6,7-tetrahydrothieno[2,3-c]pyridine-2-carbonitrile]	0.331 µM	8.43 µM
CCn1cc(-c2ccccc2[C@@H]2CN(C(=O)/C=C/CNC3CC3)Cc3sc(C#N)cc32)c(C(F)(F)F)n1 [Example 102, (S, E)-6-(4-(Cyclopropylamino)but-2-enoyl)-4-(2-(1-ethyl-3-(trifluoromethyl)-1 H-pyrazol-4-yl)phenyl)-4,5,6,7-tetrahydrothieno[2,3-c]pyridine-2-carbonitrile]	0.675 µM	1.74 µM
CCNC/C=C/C(=O)N1Cc2sc(C#N)cc2[C@H](c2cccc(F)c2-c2cn(CC)nc2C(F)(F)F)C1 [Example 100, (S, E)-4-(2-(1-Ethyl-3-(trifluoromethyl)-1 H-pyrazol-4-yl)-3-fluorophenyl)-6-(4-(ethylamino)but-2-enoyl)-4,5,6,7-tetrahydrothieno[2,3-c]pyridine-2-carbonitrile]	0.174 µM	1.38 µM
CCNC/C=C/C(=O)N1Cc2sc(C#N)cc2[C@H](c2ccccc2-c2cn(CC)nc2C(F)(F)F)C1 [Example 99, (S, E)-4-(2-(1-Ethyl-3-(trifluoromethyl)-1 H-pyrazol-4-yl)phenyl)-6-(4-(ethylamino)but-2-enoyl)-4,5,6,7-tetrahydrothieno[2,3-c]pyridine-2-carbonitrile]	0.563 µM	2.83 µM
CCn1cc(C2=C([C@@H]3CN(C(=O)/C=C/CN(C)C)Cc4sc(C#N)cc43)CCCC2)c(C(F)(F)F)n1 [Compound 237]	0.897 µM	2.64 µM

Now from value to molecule, other results behind:

IC50 [2]	Structure (SMILES)	IC50 [1]
0.909 µM	CCn1cc(-c2ccccc2[C@@H]2CN(C(=O)/C=C/C3CCCCN3)Cc3sc(C#N)cc32)c(C(F)(F)F)n1 (stereo partly drawn) [Example 111, (4S)-4-(2-(1-Ethyl-3-(trifluoromethyl)-1H pyrazol-4-yl)phenyl)-6-((E)-3-(piperidin-2-yl)acryloyl)-4,5,6,7-tetrahydrothieno[2,3-c]pyridine-2-carbonitrile]	3.36 µM
1.78 µM	CCn1cc(-c2ccccc2[C@@H]2CN(C(=O)/C=C/CNCC(C)C)Cc3sc(C#N)cc32)c(C(F)(F)F)n1 [Example 104]	2.14 µM
0.878 µM	CCn1cc(C2=C(C3CN(C(=O)/C=C/CN(C)C)Cc4sc(C#N)cc43)CCCC2)c(C(F)(F)F)n1 (centres unmarked) [Example 181, (E)-6-(4-(Dimethylamino)but-2-enoyl)-4-(2-(1-ethyl-3-(trifluoromethyl)-1 H-pyrazol-4-yl)cyclohex-1-en-1-yl)-4,5,6,7-tetrahydrothieno[2,3-c]pyridine-2-carbonitrile]	3.16 µM
0.587 µM	CN(C)CC#CC(=O)N1Cc2sc(C#N)cc2[C@H](c2ccccc2-c2c[nH]nc2C(F)(F)F)C1 [Example 151, (S)-6-(4-(Dimethylamino)but-2-ynoyl)-4-(2-(3-(trifluoromethyl)-1 H-pyrazol-4-yl)phenyl)-4,5,6,7-tetrahydrothieno[2,3-c]pyridine-2-carbonitrile]	0.18 µM
0.891 µM	CCn1cc(-c2c(C)cccc2C2CN(C(=O)/C=C/CN(C)C)Cc3sc(C#N)cc32)c(C(F)(F)F)n1 (centres unmarked) [Example 200, (E)-6-(4-(Dimethylamino)but-2-enoyl)-4-(2-(1-ethyl-3-(trifluoromethyl)-1 H-pyrazol-4-yl)-3-methylphenyl)-4,5,6,7-tetrahydrothieno[2,3-c]pyridine-2-carbonitrile]	2.28 µM
0.249 µM	CNC/C=C/C(=O)N1Cc2sc(C#N)cc2[C@H](c2cccc(F)c2-c2cn(C)nc2C(F)(F)F)C1 [Example 129, (S,E)-4-(3-Fluoro-2-(1-methyl-3-(trifluoromethyl)-1 H pyrazol-4-yl)phenyl)-6-(4-(methylamino)but-2-enoyl)-4,5,6,7-tetrahydrothieno[2,3-c]pyridine-2-carbonitrile]	0.505 µM
0.121 µM	CCn1cc(-c2c(F)cccc2[C@@H]2CN(C(=O)/C=C/[C@@H]3C[C@H](OC)CN3)Cc3sc(C#N)cc32)c(C(F)(F)F)n1 [Example 119, (S)-4-(2-(1-Ethyl-3-(trifluoromethyl)-1H pyrazol-4-yl)-3-fluorophenyl)-6-((E)-3-((2S,4S)-4-methoxypyrrolidin-2-yl)acryloyl)-4,5,6,7-tetrahydrothieno[2,3-c]pyridine-2-carbonitrile]	0.44 µM
0.128 µM	CN(C)C/C=C/C(=O)N1Cc2sc(C#N)cc2[C@H](c2ccccc2-c2cn(-c3c(F)cncc3F)nc2C(F)(F)F)C1 [Example 159, (S,E)-4-(2-(1-(3,5-Difluoropyridin-4-yl)-3-(trifluoromethyl)-1H pyrazol-4-yl)phenyl)-6-(4-(dimethylamino)but-2-enoyl)-4,5,6,7-tetrahydrothieno[2,3-c]pyridine-2-carbonitrile]	4.52 µM
0.0822 µM	Cc1c(C#N)sc2c1[C@H](c1cccc(F)c1-c1cn(C)nc1C(F)(F)F)CN(C(=O)/C=C/[C@@H]1CCCN1)C2 [Example 251, (S)-4-(3-fluoro-2-(1-methyl-3-(trifluoromethyl)-1 H-pyrazol-4-yl)phenyl)-3-methyl-6-((E)-3-((S)-pyrrolidin-2-yl)acryloyl)-4,5,6,7-tetrahydrothieno[2,3-c]pyridine-2-carbonitrile]	0.11 µM
0.0631 µM	CCn1cc(-c2c(F)cccc2[C@@H]2CN(C(=O)/C=C/[C@@H]3C[C@H](F)CN3)Cc3sc(C#N)cc32)c(C(F)(F)F)n1 [Example 122, (S)-4-(2-(1-Ethyl-3-(trifluoromethyl)-1H pyrazol-4-yl)-3-fluorophenyl)-6-((E)-3-((2S,4S)-4-fluoropyrrolidin-2-yl)acryloyl)-4,5,6,7-tetrahydrothieno[2,3-c]pyridine-2-carbonitrile]	0.12 µM
4.88 µM	CCn1cc(-c2ccccc2[C@@H]2CN(C(=O)C#C[C@@]3(C)CCCN3)Cc3sc(C#N)cc32)c(C(F)(F)F)n1 [Example 141, (S)-4-(2-(1-Ethyl-3-(trifluoromethyl)-1 H pyrazol-4-yl)phenyl)-6-(3-((R)-2-methylpyrrolidin-2-yl)propioloyl)-4,5,6,7-tetrahydrothieno[2,3-c]pyridine-2-carbonitrile]	0.35 µM
